Molecular target: Xanthine dehydrogenase/oxidase (Homo sapiens, UniProt P47989)
Assay: xanthine oxidase activity: Xanthine oxidase inhibition was determined using a standard fluorescence-based assay for xanthine oxidase activity (McHale A, Grimes H, Coughlan M P: Int J Biochem. 10:317-9, 1979) with minor variations. […] Experiments on test compounds were performed in triplicate in multi-well plates using 10 concentrations of each compound that ranged over a 3-fold dilution.

Sequence of Xanthine dehydrogenase/oxidase (P47989 whole entry): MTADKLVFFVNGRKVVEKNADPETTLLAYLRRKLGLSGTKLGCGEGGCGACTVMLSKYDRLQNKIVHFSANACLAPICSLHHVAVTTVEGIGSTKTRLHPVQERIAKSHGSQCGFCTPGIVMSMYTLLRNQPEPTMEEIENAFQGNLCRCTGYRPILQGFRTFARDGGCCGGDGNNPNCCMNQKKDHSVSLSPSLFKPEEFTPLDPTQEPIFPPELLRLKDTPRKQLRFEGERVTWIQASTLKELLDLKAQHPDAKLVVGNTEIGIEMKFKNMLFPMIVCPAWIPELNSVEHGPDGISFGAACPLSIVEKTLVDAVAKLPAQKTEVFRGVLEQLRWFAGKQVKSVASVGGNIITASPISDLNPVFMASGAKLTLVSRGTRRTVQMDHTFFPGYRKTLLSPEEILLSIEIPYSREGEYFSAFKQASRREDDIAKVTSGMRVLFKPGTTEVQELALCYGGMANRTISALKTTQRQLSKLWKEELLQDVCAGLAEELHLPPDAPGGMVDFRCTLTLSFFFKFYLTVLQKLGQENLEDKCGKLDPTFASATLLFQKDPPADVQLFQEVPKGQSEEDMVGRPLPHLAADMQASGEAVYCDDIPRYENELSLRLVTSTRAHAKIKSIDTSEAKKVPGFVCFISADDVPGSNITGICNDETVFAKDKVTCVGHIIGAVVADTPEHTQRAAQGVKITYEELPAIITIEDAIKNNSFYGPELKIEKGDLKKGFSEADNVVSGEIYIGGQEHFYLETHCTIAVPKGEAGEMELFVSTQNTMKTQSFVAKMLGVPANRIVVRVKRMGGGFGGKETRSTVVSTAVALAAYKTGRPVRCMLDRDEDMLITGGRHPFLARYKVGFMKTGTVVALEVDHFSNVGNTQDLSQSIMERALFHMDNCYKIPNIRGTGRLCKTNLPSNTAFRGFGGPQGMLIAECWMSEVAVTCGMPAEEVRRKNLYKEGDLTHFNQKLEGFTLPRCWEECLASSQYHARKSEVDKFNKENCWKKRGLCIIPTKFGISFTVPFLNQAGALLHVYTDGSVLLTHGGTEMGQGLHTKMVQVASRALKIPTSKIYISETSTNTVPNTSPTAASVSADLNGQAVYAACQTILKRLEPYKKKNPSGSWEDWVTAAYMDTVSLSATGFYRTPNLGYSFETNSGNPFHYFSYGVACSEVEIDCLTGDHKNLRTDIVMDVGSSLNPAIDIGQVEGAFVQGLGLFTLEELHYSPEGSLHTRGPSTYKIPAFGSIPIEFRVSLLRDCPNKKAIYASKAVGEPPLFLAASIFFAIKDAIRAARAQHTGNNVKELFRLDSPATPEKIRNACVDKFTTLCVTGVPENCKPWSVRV

With `O=C(O)CSc1nnc(Br)n1-c1ccc(C2CC2)c2ccccc12` the IC50 was > 300 µM.

From ChEMBL document CHEMBL5727898, “Compounds and their use for reducing uric acid levels” (2020)
